What was measured:
Caco-2 monolayers = test: TEER measurement of tight junction integrity in Caco-2 monolayers; assay type: cell-based, Human; details: inhibitor pre-incubated 30 min; for effect of inhibitor on 600-HPTChC65-mediated TEER reduction / tight junction opening: 0.005% (w/v) 600-HPTChC65, 2-h treatment; for effect of inhibitor on chitosan-mediated TEER reduction / tight junction opening: 0.005% (w/v) 600 kDa chitosan, 2-h treatment
Protocol: Human colon adenocarcinoma Caco-2 cell line was obtained from the American Type Culture Collection (Manassas, VA, USA). The cells were maintained in complete medium (CM; Dulbeco's modified Eagle's medium supplemented with 10% (v/v) fetal bovine serum, 100 units/mL penicillin, 100 µg/mL streptomycin, 1% (v/v) non-essential amino acids and 2 mM L-glutamine) at 37 °C in a humidified atmosphere of 5% CO2. Cells were grown at a density of 6 × 10^4 and 1.5 × 10^5 cells/cm^2 on a transwell insert (0.4 µm pore size; Corning Life Sciences, Tewksbury, MA, USA) for 21 days and 14 days in paracellular and transcellular experiments, respectively. At the start of each experiment, the integrity of the Caco-2 monolayer was assessed by measurement of the transepithelial electrical resistance (TEER), using a chopstick-like electrode connected to a Millicell-ERS® (Millipore, Bedford, MA, USA). Cell monolayers with a TEER value of greater than 300 Ω cm^2 were used in each experiment.
The 21 day-aged Caco-2 monolayers were incubated with transport buffers, i.e., 10 mM MES-HBSS, pH 6.5 on the apical side (the donor compartment) and 25 mM HEPES-HBSS, pH 7.4 on the basolateral side (the receiver compartment) for 30 min at 37 °C. Subsequently, the test chitosan in 1% (w/v) acetic acid was added to the apical side and incubated at 37 °C on an orbital shaker for 4 h. To investigate the tight junction signaling pathway, the monolayers were incubated with either ML-7, RO-318220 or genistein for 30 min at 37 °C prior to addition of the test chitosan. The TEER values were monitored at the indicated time points during the treatment period.
For the measurement of tight junction recovery, each monolayer was incubated with the test chitosan for 1 h prior to replacement with CM for another 24 h in a CO2 incubator at 37 °C. The TEER value was measured at the indicated time points during the 24-h chitosan withdrawal period.

[1] = target: recombinant human P-gp membranes (Homo sapiens, UniProt P08183)
Sequence of recombinant human P-gp membranes (P08183 whole entry): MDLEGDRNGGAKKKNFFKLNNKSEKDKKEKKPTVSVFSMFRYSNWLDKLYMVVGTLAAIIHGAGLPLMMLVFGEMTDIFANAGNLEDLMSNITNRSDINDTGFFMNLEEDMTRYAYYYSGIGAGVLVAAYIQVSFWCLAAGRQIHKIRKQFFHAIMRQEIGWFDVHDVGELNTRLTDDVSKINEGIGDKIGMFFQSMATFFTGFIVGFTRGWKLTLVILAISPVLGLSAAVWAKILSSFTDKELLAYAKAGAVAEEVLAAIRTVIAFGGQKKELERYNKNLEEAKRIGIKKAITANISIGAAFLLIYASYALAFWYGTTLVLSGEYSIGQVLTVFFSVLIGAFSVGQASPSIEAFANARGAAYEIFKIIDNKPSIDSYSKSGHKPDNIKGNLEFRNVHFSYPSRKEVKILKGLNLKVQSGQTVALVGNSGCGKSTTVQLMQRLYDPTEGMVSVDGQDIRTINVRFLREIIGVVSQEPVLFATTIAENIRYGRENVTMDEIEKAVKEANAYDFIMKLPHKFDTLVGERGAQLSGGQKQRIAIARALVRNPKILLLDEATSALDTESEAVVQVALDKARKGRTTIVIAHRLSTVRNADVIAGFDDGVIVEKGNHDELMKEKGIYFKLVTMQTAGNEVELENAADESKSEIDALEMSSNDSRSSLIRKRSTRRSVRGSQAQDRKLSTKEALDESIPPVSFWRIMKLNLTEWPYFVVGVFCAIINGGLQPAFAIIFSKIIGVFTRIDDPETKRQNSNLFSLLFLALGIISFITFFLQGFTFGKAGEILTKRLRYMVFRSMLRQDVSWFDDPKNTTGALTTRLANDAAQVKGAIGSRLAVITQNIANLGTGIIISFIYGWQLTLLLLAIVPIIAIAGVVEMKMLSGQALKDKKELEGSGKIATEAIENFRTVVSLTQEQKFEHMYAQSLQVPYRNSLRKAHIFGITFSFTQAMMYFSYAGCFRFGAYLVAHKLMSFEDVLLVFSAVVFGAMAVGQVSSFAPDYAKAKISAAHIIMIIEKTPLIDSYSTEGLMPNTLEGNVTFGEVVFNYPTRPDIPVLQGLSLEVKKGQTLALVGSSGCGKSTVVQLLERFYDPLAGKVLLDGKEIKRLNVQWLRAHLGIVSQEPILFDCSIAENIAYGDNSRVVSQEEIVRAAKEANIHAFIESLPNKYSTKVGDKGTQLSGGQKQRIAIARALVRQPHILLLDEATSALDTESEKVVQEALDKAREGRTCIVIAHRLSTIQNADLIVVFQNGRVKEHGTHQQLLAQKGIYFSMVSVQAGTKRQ
Protocol: Effect of 600-HPTChC65 on P-gp ATPase activity was determined in recombinant human P-gp membranes with the use of the P-gp-Glo™ assay (Promega, Madison, Wisconsin), according to the manufacturer’s instruction.

Molecule	effect of inhibitor on 600-HPTChC65-mediated TEER reduction / tight junction opening (Caco-2 monolayers)	effect of inhibitor on chitosan-mediated TEER reduction / tight junction opening (Caco-2 monolayers)	P-gp ATPase activity (change in luminescence signal) [1]
O=c1c(-c2ccc(O)cc2)coc2cc(O)cc(O)c12 [genistein]	did not prevent	no significant effect	–
Cn1cc(C2=C(c3cn(CCCSC(=N)N)c4ccccc34)C(=O)NC2=O)c2ccccc21 [RO-318220]	did not prevent	no significant effect	–
O=S(=O)(c1cccc2c(I)cccc12)N1CCCNCC1 [ML-7]	did not prevent	partially prevent	–
N-(2-hydroxypropyl)-3-trimethylammonium chitosan chloride [600-HPTChC65]	–	–	increased ATPase activity

— paper PMC10188607, “Quaternization of high molecular weight chitosan for increasing intestinal drug absorption using Caco-2 cells as an in vitro intestinal model” (Scientific Reports, 2023)
